Test results from patent US8519128B2, “Pyripyropene derivatives having an ACAT2-inhibiting activity” (The Kitasato Institute, priority 2007, dated 2013).
Where two headings read alike, the source gives them in different places.

Target: T1, ACAT 2 (Mus musculus, UniProt O88908)
T1 construct: The source of ACAT 2 enzyme used was a membrane fraction derived from mouse liver microsome; from tissue; host or cells: mouse liver (microsome fraction)
T1 sequence (O88908 1-525): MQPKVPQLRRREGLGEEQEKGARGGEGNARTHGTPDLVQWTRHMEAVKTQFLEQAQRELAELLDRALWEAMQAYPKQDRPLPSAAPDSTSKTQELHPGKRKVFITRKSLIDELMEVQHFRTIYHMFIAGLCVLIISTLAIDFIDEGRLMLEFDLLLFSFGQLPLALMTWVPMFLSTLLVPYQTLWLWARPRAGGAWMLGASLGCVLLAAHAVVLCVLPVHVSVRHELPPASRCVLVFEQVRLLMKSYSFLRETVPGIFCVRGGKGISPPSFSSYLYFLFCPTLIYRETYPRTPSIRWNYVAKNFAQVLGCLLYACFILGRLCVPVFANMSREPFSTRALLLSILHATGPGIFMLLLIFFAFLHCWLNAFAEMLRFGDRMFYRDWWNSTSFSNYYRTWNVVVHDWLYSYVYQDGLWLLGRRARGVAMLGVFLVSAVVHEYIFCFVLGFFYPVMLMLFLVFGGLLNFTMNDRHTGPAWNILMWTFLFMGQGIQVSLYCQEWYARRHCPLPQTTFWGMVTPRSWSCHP
Experiment: ACAT-inhibiting activity, mouse liver microsome membrane fraction, [14C]oleoyl-CoA
Format: biochemical
Method: The source of ACAT 2 enzyme used was a membrane fraction derived from mouse liver microsome. Mouse liver was homogenized in buffer solution A (50 mM Tris-HCl (pH 7.8), 1 mM ethylenediamine tetraacetate, and 1 mM phenylmethanesulfonyl fluoride) using a homogenizer of the Potter type (Tokyo-RIKO). The homogenate was centrifuged at 12000×g, and the supernatant was ultracentrifuged at 100000×g. The sediment was taken as a microsome fraction, and this fraction was adjusted to have a protein concentration of 5 mg/ml using buffer solution A.
The chloroform layer was evaporated to dryness and was used to spot a thin layer chromatography plate (silica gel plate, Merck, 0.5 mm thickness). Elution for separation was carried out using a solvent of hexane/diethyl ether/acetic acid (70:30:1, v/v).

[1] = mouse liver microsome, 5 minutes at 37° C.

| Compound | IC50 (read-out: Inhibitory activity: Concentration required for 50% inhibition of ACAT 2, mouse liver microsome, 5 minutes at 37° C.) [nM] | Specific activity: (inhibitory activity of test compound)/(inhibitory activity of pyripyropene A) (relative to pyripyropene A) | IC50 [1] [nM] | IC50 [nM] | Specific activity relative to pyripyropene A (numeric) (relative to pyripyropene A) |
| --- | --- | --- | --- | --- | --- |
| 7-O-o,m,p-trifluorobenzoyl-7-deacetylpyripyropene A [PRD 110] | < 10 | +++ (50 > specific activity > 10) |  |  |  |
| COc1ccccc1C(=O)O[C@H]1CC2C(C)(COC(C)=O)[C@@H](OC(C)=O)CC[C@]2(C)C2[C@@H](O)c3c(cc(-c4cccnc4)oc3=O)O[C@@]21C (some centres unmarked) [PRD 001, 7-o-methoxybenzoyl-7-deacetylpyripyropene A] |  | + (5 > specific activity > 1) | 10 to 100 |  |  |
| COc1cccc(C(=O)O[C@H]2CC3C(C)(COC(C)=O)[C@@H](OC(C)=O)CC[C@]3(C)C3[C@@H](O)c4c(cc(-c5cccnc5)oc4=O)O[C@@]32C)c1 (some centres unmarked) [PRD 002, 7-m-methoxybenzoyl-7-deacetylpyripyropene A] |  | +++ (50 > specific activity > 10) | 10 to 100 |  |  |
| COc1ccc(C(=O)O[C@H]2CC3C(C)(COC(C)=O)[C@@H](OC(C)=O)CC[C@]3(C)C3[C@@H](O)c4c(cc(-c5cccnc5)oc4=O)O[C@@]32C)cc1 (some centres unmarked) [PRD 003, 7-p-methoxybenzoyl-7-deacetylpyripyropene A] |  | +++ (50 > specific activity > 10) | < 10 |  |  |
| CC(=O)OCC1(C)C(OC(C)=O)CCC2(C)C1CC(OC(=O)c1ccccc1I)C1(C)Oc3cc(-c4cccnc4)oc(=O)c3C(O)C21 (centres unmarked) [PRD 004, 7-o-iodobenzoyl-7-deacetylpyripyropene A] |  | +++ (50 > specific activity > 10) |  |  |  |
| CC(=O)OCC1(C)C2C[C@H](OC(=O)c3cccc(I)c3)[C@@]3(C)Oc4cc(-c5cccnc5)oc(=O)c4[C@H](O)C3[C@@]2(C)CC[C@@H]1OC(C)=O (some centres unmarked) [PRD 005, 7-m-iodobenzoyl-7-deacetylpyripyropene A] |  | +++ (50 > specific activity > 10) | 10 to 100 |  |  |
| CC(=O)OCC1(C)C2C[C@H](OC(=O)c3ccc(I)cc3)[C@@]3(C)Oc4cc(-c5cccnc5)oc(=O)c4[C@H](O)C3[C@@]2(C)CC[C@@H]1OC(C)=O (some centres unmarked) [PRD 006, 7-p-iodobenzoyl-7-deacetylpyripyropene A] |  | ++ (10 > specific activity > 5) | 10 to 100 |  |  |
| CC(=O)OCC1(C)C2C[C@H](OC(=O)c3ccccc3C)[C@@]3(C)Oc4cc(-c5cccnc5)oc(=O)c4[C@H](O)C3[C@@]2(C)CC[C@@H]1OC(C)=O (some centres unmarked) [PRD 007, 7-o-methylbenzoyl-7-deacetylpyripyropene A] |  | ++++ (100 > specific activity > 50) |  |  |  |
| CC(=O)OCC1(C)C2C[C@H](OC(=O)c3cccc(C)c3)[C@@]3(C)Oc4cc(-c5cccnc5)oc(=O)c4[C@H](O)C3[C@@]2(C)CC[C@@H]1OC(C)=O (some centres unmarked) [PRD 008, 7-m-methylbenzoyl-7-deacetylpyripyropene A] |  | +++ (50 > specific activity > 10) |  |  |  |
| CC(=O)OCC1(C)C(OC(C)=O)CCC2(C)C1CC(OC(=O)c1ccc(C)cc1)C1(C)Oc3cc(-c4cccnc4)oc(=O)c3C(O)C21 (centres unmarked) [PRD 009] |  | ++++ (100 > specific activity > 50) |  |  |  |
| CC(=O)OCC1(C)C2C[C@H](OC(=O)c3ccccc3Cl)[C@@]3(C)Oc4cc(-c5cccnc5)oc(=O)c4[C@H](O)C3[C@@]2(C)CC[C@@H]1OC(C)=O (some centres unmarked) [PRD 010, 7-o-chlorobenzoyl-7-deacetylpyripyropene A] |  | +++ (50 > specific activity > 10) | 10 to 100 |  |  |
| CC(=O)OCC1(C)C2C[C@H](OC(=O)c3cccc(Cl)c3)[C@@]3(C)Oc4cc(-c5cccnc5)oc(=O)c4[C@H](O)C3[C@@]2(C)CC[C@@H]1OC(C)=O (some centres unmarked) [PRD 011, 7-m-chlorobenzoyl-7-deacetylpyripyropene A] |  | +++ (50 > specific activity > 10) | 10 to 100 |  |  |
| CC(=O)OCC1(C)C2C[C@H](OC(=O)c3ccc(Cl)cc3)[C@@]3(C)Oc4cc(-c5cccnc5)oc(=O)c4[C@H](O)C3[C@@]2(C)CC[C@@H]1OC(C)=O (some centres unmarked) [PRD 012, 7-p-chlorobenzoyl-7-deacetylpyripyropene A] |  | +++ (50 > specific activity > 10) | < 10 |  |  |
| C=Cc1cccc(C(=O)O[C@H]2CC3C(C)(COC(C)=O)[C@@H](OC(C)=O)CC[C@]3(C)C3[C@@H](O)c4c(cc(-c5cccnc5)oc4=O)O[C@@]32C)c1 (some centres unmarked) [PRD 013, 7-m-vinylbenzoyl-7-deacetylpyripyropene A] |  | +++ (50 > specific activity > 10) | < 10 |  |  |
| C=Cc1ccc(C(=O)O[C@H]2CC3C(C)(COC(C)=O)[C@@H](OC(C)=O)CC[C@]3(C)C3[C@@H](O)c4c(cc(-c5cccnc5)oc4=O)O[C@@]32C)cc1 (some centres unmarked) [PRD 014, 7-p-vinylbenzoyl-7-deacetylpyripyropene A] |  | ++ (10 > specific activity > 5) |  |  |  |
| CC(=O)OCC1(C)C2C[C@H](OC(=O)c3ccccc3C#N)[C@@]3(C)Oc4cc(-c5cccnc5)oc(=O)c4[C@H](O)C3[C@@]2(C)CC[C@@H]1OC(C)=O (some centres unmarked) [PRD 015, 7-o-cyanobenzoyl-7-deacetylpyripyropene A] |  | + (5 > specific activity > 1) | 100 to 1000 |  |  |
| CC(=O)OCC1(C)C2C[C@H](OC(=O)c3cccc(C#N)c3)[C@@]3(C)Oc4cc(-c5cccnc5)oc(=O)c4[C@H](O)C3[C@@]2(C)CC[C@@H]1OC(C)=O (some centres unmarked) [PRD 016, 7-m-cyanobenzoyl-7-deacetylpyripyropene A] |  | +++ (50 > specific activity > 10) | 10 to 100 |  |  |
| CSc1ccc(C(=O)O[C@H]2CC3C(C)(COC(C)=O)[C@@H](OC(C)=O)CC[C@]3(C)C3[C@@H](O)c4c(cc(-c5cccnc5)oc4=O)O[C@@]32C)cc1 (some centres unmarked) [PRD 018, 7-p-methylthiobenzoyl-7-deacetylpyripyropene A] |  | + (5 > specific activity > 1) | 10 to 100 |  |  |
| CC(=O)OCC1(C)C2C[C@H](OC(=O)c3ccc(Br)cc3)[C@@]3(C)Oc4cc(-c5cccnc5)oc(=O)c4[C@H](O)C3[C@@]2(C)CC[C@@H]1OC(C)=O (some centres unmarked) [PRD 019, 7-p-bromobenzoyl-7-deacetylpyripyropene A] |  | +++ (50 > specific activity > 10) |  |  |  |
| CC(=O)OCC1(C)C2C[C@H](OC(=O)c3ccc(F)cc3)[C@@]3(C)Oc4cc(-c5cccnc5)oc(=O)c4[C@H](O)C3[C@@]2(C)CC[C@@H]1OC(C)=O (some centres unmarked) [PRD 020, 7-p-fluorobenzoyl-7-deacetylpyripyropene A] |  | +++ (50 > specific activity > 10) | < 10 |  |  |
| CC(=O)OCC1(C)C2C[C@H](OC(=O)C3CCCCC3)[C@@]3(C)Oc4cc(-c5cccnc5)oc(=O)c4[C@H](O)C3[C@@]2(C)CC[C@@H]1OC(C)=O (some centres unmarked) [PRD 021, 7-cyclohexanecarboxyl-7-deacetylpyripyropene A] |  | ++++ (100 > specific activity > 50) |  | < 10 |  |
| CC(=O)OCC1(C)C2C[C@H](OC(=O)C34CC5CC(CC(C5)C3)C4)[C@@]3(C)Oc4cc(-c5cccnc5)oc(=O)c4[C@H](O)C3[C@@]2(C)CC[C@@H]1OC(C)=O (some centres unmarked) [PRD 022, 7-1-adamantanecarboxyl-7-deacetylpyripyropene A] |  | +++ (50 > specific activity > 10) | < 10 |  |  |
| CSc1cccc(C(=O)O[C@H]2CC3C(C)(COC(C)=O)[C@@H](OC(C)=O)CC[C@]3(C)C3[C@@H](O)c4c(cc(-c5cccnc5)oc4=O)O[C@@]32C)c1 (some centres unmarked) [PRD 023, 7-m-methylthiobenzoyl-7-deacetylpyripyropene A] |  | +++ (50 > specific activity > 10) | 10 to 100 |  |  |
| CC(=O)OCC1(C)C2C[C@H](OC(=O)c3cccc(F)c3)[C@@]3(C)Oc4cc(-c5cccnc5)oc(=O)c4[C@H](O)C3[C@@]2(C)CC[C@@H]1OC(C)=O (some centres unmarked) [PRD 024, 7-m-fluorobenzoyl-7-deacetylpyripyropene A] |  | +++++ (specific activity > 100) | < 10 |  | ≥ 100 |
| CCc1ccc(C(=O)O[C@H]2CC3C(C)(COC(C)=O)[C@@H](OC(C)=O)CC[C@]3(C)C3[C@@H](O)c4c(cc(-c5cccnc5)oc4=O)O[C@@]32C)cc1 (some centres unmarked) [PRD 025, 7-p-ethylbenzoyl-7-deacetylpyripyropene A] |  | ++++ (100 > specific activity > 50) |  |  |  |
